Laboratory results as given in patent publication US20050064442A1, “Methods for identifying risk of breast cancer and treatments thereof” (priority 2002, published 2005).

Tested on: cell lines where RAD21 expression is inhibited using siRNA
Experiment: Clonogenic survival assay
Format: cell-based
Protocol: Clonogenic survival assays measure survival of cells after treatment with cytotoxic agents. In this particular assay the aim is to investigate the effect of downregulating RAD21 expression on sensitivity to therapeutically relevant DNA damaging agent.
Cells were transfected with siRNA against RAD21, siRAD21—272, to reduce expression of RAD21. […] Cells were then trypsinized and replated at 200 cells per plate. Cells were grown for 11-12 days, fixed and stained with crystal violet to detect colonies. Colonies were then counted.
The data were fitted to a curve and the DRF values calculated from the fitted curves of siRAD21 and Lipofectamine.

bleomycin
sensitivity to drug in clonogenic survival (cell lines where RAD21 expression is inhibited using siRNA, FIGS. 9 and 10): increased sensitivity | DRF20 (factor by which the dose can be reduced in the presence of decreased RAD21 expression) (cells transfected with siRAD21—272, drug exposure 2 hours, two days after transfection, colonies counted after 11-12 days, from fitted curves of siRAD21 and Lipofectamine): 1.15
